Results taken from patent EP4786470A1, “METHOD FOR S[…]-CIT LINEAR PRECURSOR WITH HIGH PURITY, AND METHOD FOR PREPARING [18F]FP-CIT BY USING SAME” (The Asan Foundation, priority 2023, dated 2025).
“And” between values parts separate entries of the source, which are not always exact repeats. Equal values may be shown once.

How the values were obtained:
[1] = Storage stability of FP-CIT linear precursor in storage solvent (purity over 12 months by HPLC analysis); type: physicochemical
Description: HPLC analysis was carried out using the same experimental method and analytic conditions as in Example 1-1, except that the storage temperature was -20°C. […] The purity of the FP-CIT linear precursor over time is summarized in FIG. 4 and the following Table 3.
HPLC analysis was carried out using the same experimental method and analytic conditions as in Example 1-1, except that the storage concentration was 8 mg/mL. […] The purity of the FP-CIT linear precursor over time is summarized in FIG. 5 and the following Table 4.
HPLC analysis was carried out using the same experimental method and analytic conditions as in Example 3-1, except that the storage temperature was -20°C. […] The purity of the FP-CIT linear precursor over time is summarized in FIG. 5 and the following Table 4.

[2] = cited from earlier work

Structure (SMILES): COC(=O)C1C(c2ccc(I)cc2)CC2CCC1N2CCCOS(C)(=O)=O (stereo not drawn) [FP-CIT linear precursor]
- purity of the FP-CIT linear precursor ([1]; CHCl3, 1 mg/mL, -20°C, 0 months (start of storage assumed 100%)): 100.0%
- purity of the FP-CIT linear precursor ([1]; CHCl3, 1 mg/mL, -20°C, 3 months): 79.4%
- purity of the FP-CIT linear precursor ([1]; CHCl3, 1 mg/mL, -20°C, 5 months): 65% and 65.1%
- purity of the FP-CIT linear precursor ([1]; CHCl3, 1 mg/mL, -20°C, 7 months): 57.1%
- purity of the FP-CIT linear precursor ([1]; CHCl3, 1 mg/mL, -20°C, 9 months): 53.2%
- purity of the FP-CIT linear precursor ([1]; CHCl3, 1 mg/mL, room temperature, 0 months (start of storage assumed 100%)): 100.0%
- purity of the FP-CIT linear precursor ([1]; CHCl3, 1 mg/mL, room temperature, 3 months): 60.4%
- purity of the FP-CIT linear precursor ([1]; CHCl3, 1 mg/mL, room temperature, 7 months): 2.2%
- purity of the FP-CIT linear precursor ([1]; CHCl3, 1 mg/mL, room temperature, 9 months): 0.7%
- purity of the FP-CIT linear precursor ([1]; DCM, 1 mg/mL, -20°C, 0 months (start of storage assumed 100%)): 100.0%
- purity of the FP-CIT linear precursor ([1]; DCM, 1 mg/mL, -20°C, 3 months): 93.5%
- purity of the FP-CIT linear precursor ([1]; DCM, 1 mg/mL, -20°C, 7 months): 73.2%
- purity of the FP-CIT linear precursor ([1]; DCM, 1 mg/mL, -20°C, 9 months): 71.3%
- purity of the FP-CIT linear precursor ([1]; DCM, 1 mg/mL, room temperature, 0 months (start of storage assumed 100%)): 100.0%
- purity of the FP-CIT linear precursor ([1]; DCM, 1 mg/mL, room temperature, 3 months): 47.0%
- purity of the FP-CIT linear precursor ([1]; DCM, 1 mg/mL, room temperature, 5 months): 34% and 34.2%
- purity of the FP-CIT linear precursor ([1]; DCM, 1 mg/mL, room temperature, 7 months): 30.9%
- purity of the FP-CIT linear precursor ([1]; DCM, 1 mg/mL, room temperature, 9 months): 13.1%
- purity of the FP-CIT linear precursor ([1]; EA, 1 mg/mL, -20°C, 0 months (start of storage assumed 100%)): 100.0%
- purity of the FP-CIT linear precursor ([1]; EA, 1 mg/mL, -20°C, 1 month): 97.5%
- purity of the FP-CIT linear precursor ([1]; EA, 1 mg/mL, -20°C, 3 months): 97.4%
- purity of the FP-CIT linear precursor ([1]; EA, 1 mg/mL, -20°C, 5 months): 96.7%
- purity of the FP-CIT linear precursor ([1]; EA, 1 mg/mL, -20°C, 7 months): 96.4%
- purity of the FP-CIT linear precursor ([1]; EA, 1 mg/mL, -20°C, 9 months): 96.4%
- purity of the FP-CIT linear precursor ([1]; EA, 1 mg/mL, room temperature, 0 months (start of storage assumed 100%)): 100.0%
- purity of the FP-CIT linear precursor ([1]; EA, 1 mg/mL, room temperature, 3 months): 91.2%
- purity of the FP-CIT linear precursor ([1]; EA, 1 mg/mL, room temperature, 7 months): 39.8%
- purity of the FP-CIT linear precursor ([1]; EA, 1 mg/mL, room temperature, 9 months): 28.4%
- purity of the FP-CIT linear precursor ([1]; EA, 8 mg/mL, -20°C, 0 months (start of storage assumed 100%)): 100.0%
- purity of the FP-CIT linear precursor ([1]; EA, 8 mg/mL, -20°C, 1 month): 99.3%
- purity of the FP-CIT linear precursor ([1]; EA, 8 mg/mL, -20°C, 3 months): 99.0%
- purity of the FP-CIT linear precursor ([1]; EA, 8 mg/mL, -20°C, 7 months): 96.7%
- purity of the FP-CIT linear precursor ([1]; EA, 8 mg/mL, -20°C, 9 months): 96.4%
- purity of the FP-CIT linear precursor ([1]; EA, 8 mg/mL, room temperature, 0 months (start of storage assumed 100%)): 100.0%
- purity of the FP-CIT linear precursor ([1]; EA, 8 mg/mL, room temperature, 3 months): 64.3%
- purity of the FP-CIT linear precursor ([1]; EA, 8 mg/mL, room temperature, 5 months): 43% and 43.3%
- purity of the FP-CIT linear precursor ([1]; EA, 8 mg/mL, room temperature, 7 months): 16.2%
- purity of the FP-CIT linear precursor ([1]; EA, 8 mg/mL, room temperature, 9 months): 13.5%
- purity of the FP-CIT linear precursor ([1]; THF, 1 mg/mL, -20°C, 0 months (start of storage assumed 100%)): 100.0%
- purity of the FP-CIT linear precursor ([1]; THF, 1 mg/mL, -20°C, 1 month): 98.0%
- purity of the FP-CIT linear precursor ([1]; THF, 1 mg/mL, -20°C, 3 months): 96.7%
- purity of the FP-CIT linear precursor ([1]; THF, 1 mg/mL, -20°C, 7 months): 95.1%
- purity of the FP-CIT linear precursor ([1]; THF, 1 mg/mL, -20°C, 9 months): 94.7%
- purity of the FP-CIT linear precursor ([1]; THF, 1 mg/mL, room temperature, 0 months (start of storage assumed 100%)): 100.0%
- purity of the FP-CIT linear precursor ([1]; THF, 1 mg/mL, room temperature, 3 months): 89.9%
- purity of the FP-CIT linear precursor ([1]; THF, 1 mg/mL, room temperature, 7 months): 56.6%
- purity of the FP-CIT linear precursor ([1]; THF, 1 mg/mL, room temperature, 9 months): 25.6%
- purity of the FP-CIT linear precursor ([1]; THF, 8 mg/mL, -20°C, 0 months (start of storage assumed 100%)): 100.0%
- purity of the FP-CIT linear precursor ([1]; THF, 8 mg/mL, -20°C, 1 month): 98.8%
- purity of the FP-CIT linear precursor ([1]; THF, 8 mg/mL, -20°C, 3 months): 97.5%
- purity of the FP-CIT linear precursor ([1]; THF, 8 mg/mL, -20°C, 7 months): 94.7%
- purity of the FP-CIT linear precursor ([1]; THF, 8 mg/mL, -20°C, 9 months): 94.4%
- purity of the FP-CIT linear precursor ([1]; THF, 8 mg/mL, -20°C, 12 months): 89% and 89.7%
- purity of the FP-CIT linear precursor ([1]; THF, 8 mg/mL, room temperature, 0 months (start of storage assumed 100%)): 100.0%
- purity of the FP-CIT linear precursor ([1]; THF, 8 mg/mL, room temperature, 3 months): 72.9%
- purity of the FP-CIT linear precursor ([1]; THF, 8 mg/mL, room temperature, 5 months): 30% and 30.4%
- purity of the FP-CIT linear precursor ([1]; THF, 8 mg/mL, room temperature, 7 months): 5.5%
- purity of the FP-CIT linear precursor ([1]; THF, 8 mg/mL, room temperature, 9 months): 5.5%

Structure (SMILES): ClCCl [Dichloromethane (DCM), Dichloromethane]
- Water solubility (g/100 mL, 20°C) [2]: 1.6 g/100 mL

Structure (SMILES): CCOC(C)=O [Ethyl acetate (EA), Ethyl acetate]
- Water solubility (g/100 mL, 20°C) [2]: 8.3 g/100 mL
